pIC50: −log10 of the molar value.
Test system: HIV-1 (strain IIIB)
Experiment: Antiviral activity assay in MT4 cells (propidium iodide based)
Type: cell-based
Details: Human immunodeficiency virus 1, IIIB; wild type HIV-1 virus, MT4 cells; read-out: Wildtype virus - IC50
Description: Antiviral Activity Assay in MT4 Cells
Aliquots of the test compounds were serially diluted in medium (RPMI 1640, 10% fetal calf serum (FCS), and gentamycin) in 96-well plates (Costar 3598) using a Cetus Pro/Pette. Exponentially growing MT4 cells were harvested and centrifuged at 1000 rpm for 10 min in a Jouan centrifuge (model CR 4 12). Cell pellets were resuspended in fresh medium (RPMI 1640, 20% FCS, 20% IL-2, and gentamycin) to a density of 5×10^5 cells/ml. Cell aliquots were infected by the addition of HIV-1 (strain IIIB) diluted to give a viral multiplicity of infection of 100×TCID50. A similar cell aliquot was diluted with medium to provide a mock-infected control. Cell infection was allowed to proceed for 1 hr at 37° in a tissue culture incubator with humidified 5% CO2 atmosphere. After the 1 hr incubation the virus/cell suspensions were diluted 6-fold with fresh medium, and 125 μl of the cell suspension was added to each well of the plate containing pre-diluted compound. Plates were then placed in a tissue culture incubator with humidified 5% CO2 for 5 days. At the end of the incubation period, 27 μl of 5% Nonidet-40 was added to each well of the incubation plate. After thorough mixing with a Costar multitip pipetter, 60 μl of the mixture was transferred to filter-bottomed 96-well plates. The plates were analyzed in an automated assay instrument (Screen Machine, Idexx Laboratories). The assay makes use of a propidium iodide dye to estimate the DNA content of each well.
The anti-viral potency in MT-4 cells of the compounds set forth in Tables 1 and 2 was determined using the above technique.

pIC50	SMILES
7.00 to 8.00	CC(C)(CCCC#N)CN(C[C@@H](O)[C@H](Cc1ccc(OCc2ccccc2)cc1)NC(=O)OC1COCOC1)S(=O)(=O)c1ccc2c(c1)OCO2 [Compound 306, 1,3-Dioxan-5-yl (1S,2R)-3-[(1,3-benzodioxol-5-ylsulfonyl)(5-cyano-2,2-dimethylpentyl)amino]-1-[4 (benzyloxy)benzyl]-2-hydroxypropylcarbamate]
7.00 to 8.00	CC(C)(CCCC#N)CN(C[C@@H](O)[C@H](Cc1ccc(OCc2ccccc2)cc1)NC(=O)O[C@H]1CCOC1)S(=O)(=O)c1ccc2c(c1)OCO2 [Compound 307, (3S)-Tetrahydro-3-furanyl (1S,2R)-3-[(1,3-benzodioxol-5-ylsulfonyl)(5-cyano-2,2-dimethylpentyl)amino]-1-[4-(benzyloxy)benzyl]-2-hydroxypropylcarbamate]
7.00 to 8.00	Cc1cccc(C)c1OCC(=O)N[C@@H](Cc1ccc(OCc2ccccc2)cc1)[C@H](O)CN(CC(C)C)S(=O)(=O)c1ccc2c(c1)OCO2 [Compound 325, N-{(1S,2R)-3-[(1,3-Benzodioxol-5-ylsulfonyl)(isobutyl)amino]-1-[4-(benzyloxy)benzyl]-2-hydroxypropyl}-2-(2,6-dimethylphenoxy)acetamide]
7.00 to 8.00	CCOC(CCOC(=O)N[C@@H](Cc1ccc(OCc2ccccc2)cc1)[C@H](O)CN(CC(C)C)S(=O)(=O)c1ccc2c(c1)OCO2)OCC [Compound 328, 3,3-Diethoxypropyl (1S,2R)-3-[(1,3-benzodioxol-5-ylsulfonyl)(isobutyl)amino]-1-[4-(benzyloxy)benzyl]-2-hydroxypropylcarbamate]
7.00 to 8.00	CCC(CC)ON(C[C@@H](O)[C@H](Cc1ccc(OCc2ccccc2)cc1)NC(=O)OC1COCOC1)S(=O)(=O)c1ccc2c(c1)OCO2 [Compound 330, 1,3-Dioxan-5-yl (1S,2R)-3-[(1,3-benzodioxol-5-ylsulfonyl) (1-ethylpropoxy)amino]-1-[4-(benzyloxy)benzyl]-2-hydroxypropylcarbamate]

SMILES	pIC50
CC(C)CN(C[C@@H](O)[C@H](Cc1ccc(OCCCCN)cc1)NC(=O)O[C@H]1CO[C@H]2OCC[C@H]21)S(=O)(=O)c1ccc2c(c1)OCO2 [Compound 224, (3R,3aS,6aR)-hexahydrofuro[2,3-b]furan-3-yl (1S,2R)-1-[4-(4-aminobutoxy)benzyl]-3-[(1,3-benzodioxol-5-ylsulfonyl) (isobutyl)amino]-2-hydroxypropylcarbamate]	7.00 to 8.00
CC(C)CN(C[C@@H](O)[C@H](Cc1ccc(OCCCC(N)=O)cc1)NC(=O)O[C@H]1CO[C@H]2OCC[C@H]21)S(=O)(=O)c1ccc2c(c1)OCO2 [Compound 285, (3R,3aS,6aR)-hexahydrofuro[2,3-b]furan-3-yl (1S,2R)-1-[4-(4-amino-4-oxobutoxy)benzyl]-3-[(1,3-benzodioxol-5-ylsulfonyl)(isobutyl)amino]-2-hydroxypropylcarbamate]	7.00 to 8.00

Same assay, conditions: Human immunodeficiency virus 1, MT4, 120 h; MT-4 cells, HIV-1 strain IIIB, 5 days; read-out: IC50 (Antiviral Activity of Compounds of the Invention)

pIC50	SMILES
8.00 to 9.00	CC(C)CN(C[C@@H](O)[C@H](Cc1ccc(OCCn2cccn2)cc1)NC(=O)O[C@H]1CO[C@H]2OCC[C@H]21)S(=O)(=O)c1ccc2c(c1)OCO2 [Compound 57, Bis-THF Methylenedioxybenzenesulfonamide Ethylpyrazole Tethered Product]

Same assay, conditions: MT-4 cells, HIV-1 strain IIIB, 5 days; read-out: IC50 (Antiviral Activity of Compounds of the Invention)

pIC50	SMILES
< 7.00	COCCN(CCOC)CCOc1ccc(CC(NC(=O)OC(C)(C)C)C(O)CN(CC(C)(C)CCC#N)S(=O)(=O)c2ccc(N)cc2)cc1 (stereo not drawn) [Compound 67]
< 7.00	COCCN(CCOC)CCOc1ccc(CC(NC(=O)OC(C)(C)C)C(O)CN(CC(C)(C)CCC#N)S(=O)(=O)c2ccc3c(c2)OCO3)cc1 (stereo not drawn) [Compound 68]
< 7.00	COCCN(CCOC)CCOc1ccc(CC(NC(=O)OC2CCOC2)C(O)CN(CC(C)(C)CCC#N)S(=O)(=O)c2ccc3c(c2)OCO3)cc1 (stereo not drawn) [Compound 69]
< 7.00	COCCN(CCOC)CCOc1ccc(CC(NC(=O)OC2CCOC2)C(O)CN(CC(C)(C)CCC#N)S(=O)(=O)c2ccc(N)cc2)cc1 (stereo not drawn) [Compound 70]
8.00 to 9.00	CC(C)(CCC#N)CN(CC(O)C(Cc1ccc(OCc2ccccc2)cc1)NC(=O)OC1COC2OCCC12)S(=O)(=O)c1ccc(N)cc1 (stereo not drawn) [Compound 71]
8.00 to 9.00	CC(C)(CCC#N)CN(CC(O)C(Cc1ccc(OCc2ccccc2)cc1)NC(=O)OC1COC2OCCC12)S(=O)(=O)c1ccc2c(c1)OCO2 (stereo not drawn) [Compound 72]
7.00 to 8.00	COCCN(CCOC)CCOc1ccc(CC(NC(=O)OC2COC3OCCC23)C(O)CN(CC(C)(C)CCC#N)S(=O)(=O)c2ccc3c(c2)OCO3)cc1 (stereo not drawn) [Compound 73]
< 7.00	COCCN(CCOC)CCOc1ccc(CC(NC(=O)OC2COC3OCCC23)C(O)CN(CC(C)(C)CCC#N)S(=O)(=O)c2ccc(N)cc2)cc1 (stereo not drawn) [Compound 74]

Same assay, conditions: wild type HIV-1 virus, MT4 cells; read-out: Wildtype virus - IC50

SMILES	pIC50
CC(C)CN(C[C@@H](O)[C@H](Cc1ccc(OCc2ccsc2)cc1)NC(=O)O[C@H]1CO[C@H]2OCC[C@H]21)S(=O)(=O)c1ccc2c(c1)OCO2 [Compound 207]	8.00 to 9.00
CC(C)CN(C[C@@H](O)[C@H](Cc1ccc(OCCc2ccsc2)cc1)NC(=O)O[C@H]1CO[C@H]2OCC[C@H]21)S(=O)(=O)c1ccc2c(c1)OCO2 [Compound 208]	7.00 to 8.00
CC(C)CN(C[C@@H](O)[C@H](Cc1ccc(OCCc2cccs2)cc1)NC(=O)O[C@H]1CO[C@H]2OCC[C@H]21)S(=O)(=O)c1ccc2c(c1)OCO2 [Compound 209]	8.00 to 9.00
CC(C)CN(C[C@@H](O)[C@H](Cc1ccc(OCCc2ccncc2)cc1)NC(=O)O[C@H]1CO[C@H]2OCC[C@H]21)S(=O)(=O)c1ccc2c(c1)OCO2 [Compound 211]	8.00 to 9.00
Cc1ncsc1CCOc1ccc(C[C@H](NC(=O)O[C@H]2CO[C@H]3OCC[C@H]32)[C@H](O)CN(CC(C)C)S(=O)(=O)c2ccc3c(c2)OCO3)cc1 [Compound 213]	8.00 to 9.00
CC(C)CN(C[C@@H](O)[C@H](Cc1ccc(OCCCc2cccnc2)cc1)NC(=O)O[C@H]1CO[C@H]2OCC[C@H]21)S(=O)(=O)c1ccc2c(c1)OCO2 [Compound 214]	8.00 to 9.00
CC(C)CN(C[C@@H](O)[C@H](Cc1ccc(OCCc2ccc(C#N)cc2)cc1)NC(=O)O[C@H]1CO[C@H]2OCC[C@H]21)S(=O)(=O)c1ccc2c(c1)OCO2 [Compound 215]	8.00 to 9.00
CC(C)CN(C[C@@H](O)[C@H](Cc1ccc(OCCCC(F)(F)F)cc1)NC(=O)O[C@H]1CO[C@H]2OCC[C@H]21)S(=O)(=O)c1ccc2c(c1)OCO2 [Compound 216]	8.00 to 9.00
CC(C)CN(C[C@@H](O)[C@H](Cc1ccc(OCCC(F)(F)F)cc1)NC(=O)O[C@H]1CO[C@H]2OCC[C@H]21)S(=O)(=O)c1ccc2c(c1)OCO2 [Compound 217]	8.00 to 9.00
CC(C)CC(=O)NCCCOc1ccc(C[C@H](NC(=O)O[C@H]2CO[C@H]3OCC[C@H]32)[C@H](O)CN(CC(C)C)S(=O)(=O)c2ccc3c(c2)OCO3)cc1 [Compound 231]	8.00 to 9.00
CC(C)CN(C[C@@H](O)[C@H](Cc1ccc(OCCCNC(=O)C(C)(C)C)cc1)NC(=O)O[C@H]1CO[C@H]2OCC[C@H]21)S(=O)(=O)c1ccc2c(c1)OCO2 [Compound 232]	8.00 to 9.00
CC(C)CN(C[C@@H](O)[C@H](Cc1ccc(OCCNC(=O)c2ccco2)cc1)NC(=O)O[C@H]1CO[C@H]2OCC[C@H]21)S(=O)(=O)c1ccc2c(c1)OCO2 [Compound 234]	8.00 to 9.00
CCOC(=O)NCCOc1ccc(C[C@H](NC(=O)O[C@H]2CO[C@H]3OCC[C@H]32)[C@H](O)CN(CC(C)C)S(=O)(=O)c2ccc3c(c2)OCO3)cc1 [Compound 245]	8.00 to 9.00
CCOC(=O)NCCCOc1ccc(C[C@H](NC(=O)O[C@H]2CO[C@H]3OCC[C@H]32)[C@H](O)CN(CC(C)C)S(=O)(=O)c2ccc3c(c2)OCO3)cc1 [Compound 246]	8.00 to 9.00
CCOC(=O)NCCCCOc1ccc(C[C@H](NC(=O)O[C@H]2CO[C@H]3OCC[C@H]32)[C@H](O)CN(CC(C)C)S(=O)(=O)c2ccc3c(c2)OCO3)cc1 [Compound 247]	8.00 to 9.00
CC(C)CN(C[C@@H](O)[C@H](Cc1ccc(OCCNC(=O)OC(C)C)cc1)NC(=O)O[C@H]1CO[C@H]2OCC[C@H]21)S(=O)(=O)c1ccc2c(c1)OCO2 [Compound 248]	8.00 to 9.00
CC(C)CN(C[C@@H](O)[C@H](Cc1ccc(OCCCNC(=O)OC(C)C)cc1)NC(=O)O[C@H]1CO[C@H]2OCC[C@H]21)S(=O)(=O)c1ccc2c(c1)OCO2 [Compound 249]	8.00 to 9.00
CC(C)CN(C[C@@H](O)[C@H](Cc1ccc(OCCCCNC(=O)OC(C)C)cc1)NC(=O)O[C@H]1CO[C@H]2OCC[C@H]21)S(=O)(=O)c1ccc2c(c1)OCO2 [Compound 250]	8.00 to 9.00
CC(C)CN(C[C@@H](O)[C@H](Cc1ccc(OCCCCNS(C)(=O)=O)cc1)NC(=O)O[C@H]1CO[C@H]2OCC[C@H]21)S(=O)(=O)c1ccc2c(c1)OCO2 [Compound 252]	8.00 to 9.00
CC(C)CN(C[C@@H](O)[C@H](Cc1ccc(OCCCNC(=O)N(C)C)cc1)NC(=O)O[C@H]1CO[C@H]2OCC[C@H]21)S(=O)(=O)c1ccc2c(c1)OCO2 [Compound 254]	8.00 to 9.00

Reference: patent US8455497B2, “Inhibitors of aspartyl protease” (Vertex Pharmaceuticals Incorporated, priority 1999, dated 2013)
